Counter-ions that a name gives are not always drawn.
Target: T1, HCV polymerase (Hepatitis C virus genotype 1b, UniProt P26663)
T1 construct: a region encoding NS5B (J Virol 1991 March, 65(3), 1105-13, 544 amino acids after deletion of 47 amino acids on the C-terminal); 6xHis (C); made in house; host or cells: Escherichia coli
Test: biochemical
Design: species or system HCV BK strain
Outline: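 His-tagged NS5B (BK strain, 47-aa C-terminal deletion, E. coli-expressed) at 0.5 μg/ml copied 5 μg/ml run-off RNA bearing the HCV 3′ UTR with 2 μM UTP plus [3H]UTP, 50 μM ATP/GTP, in pH 7.5 Tris with 5 mM MgCl2, 25 °C, 90 min. TCA-precipitated RNA was counted and IC50 calculated.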

T1 sequence (P26663 2420-2963): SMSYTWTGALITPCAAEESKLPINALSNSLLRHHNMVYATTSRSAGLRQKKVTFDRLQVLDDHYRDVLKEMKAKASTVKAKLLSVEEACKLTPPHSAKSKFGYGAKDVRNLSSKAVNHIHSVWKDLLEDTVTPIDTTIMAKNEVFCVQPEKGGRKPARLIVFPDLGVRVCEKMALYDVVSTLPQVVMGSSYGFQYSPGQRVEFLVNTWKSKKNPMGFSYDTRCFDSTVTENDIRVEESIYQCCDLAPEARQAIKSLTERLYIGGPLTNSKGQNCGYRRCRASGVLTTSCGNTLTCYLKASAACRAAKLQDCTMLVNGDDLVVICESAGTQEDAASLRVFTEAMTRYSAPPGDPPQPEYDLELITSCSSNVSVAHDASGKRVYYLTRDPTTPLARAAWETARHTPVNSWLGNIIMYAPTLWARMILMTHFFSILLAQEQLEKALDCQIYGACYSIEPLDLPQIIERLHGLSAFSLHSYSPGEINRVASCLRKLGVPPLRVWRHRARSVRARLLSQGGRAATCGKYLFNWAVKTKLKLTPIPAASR

CC(C)(NC(=O)c1ccc2c(C3CCCCC3)c3n(c2c1)CCOc1ccccc1-3)C(=O)N1CCC(O)(c2ccc(F)cc2)CC1 [Example 2-358, N-{2-[4-(4-fluorophenyl)-4-hydroxypiperidin-1-yl]-1,1-dimethyl-2-oxoethyl]-12-cyclohexyl-6,7-dihydro-5-oxa-7a-azadibenzo[a,e]azulene-9-carboxamide]
IC50: < 0.1 µM

O=C(O)c1ccc2c(C3CCCCC3)c3n(c2c1)CCOc1c-3cccc1N(CC(=O)N1CCOCC1)CC(=O)N1CCOCC1 [Example 2-359, 4-{bis[2-(morpholin-4-yl)-2-oxoethyl]amino}-12-cyclohexyl-6,7-dihydro-5-oxa-7a-azadibenzo[a,e]azulene-9-carboxylic acid]
IC50: < 0.1 µM

O=C(O)c1ccc2c(C3CCCCC3)c3n(c2c1)CCOc1c-3cccc1N(CCN1CCCOCC1)CCN1CCCOCC1 [Example 2-360, 4-{bis[2-(1,4-oxazepan-4-yl)ethyl]amino}-12-cyclohexyl-6,7-dihydro-5-oxa-7a-azadibenzo[a,e]azulene-9-carboxylic acid trihydrochloride]
IC50: < 0.1 µM

O=C(O)c1ccc2c(C3CCCCC3)c3n(c2c1)CCOc1c-3cccc1N(CCN1CCOCC1)CCN1CCOCC1 [Example 2-361, 4-{bis[2-(morpholin-4-yl)ethyl]amino}-12-cyclohexyl-6,7-dihydro-5-oxa-7a-azadibenzo[a,e]azulene-9-carboxylic acid trihydrochloride]
IC50: < 0.1 µM

COC(=O)Nc1ccc(C[C@H](NC(=O)c2ccc3c(C4CCCCC4)c4n(c3c2)CCOc2cc(OC)ccc2-4)C(=O)OC)cc1 [Example 2-362, methyl (S)-2-[(12-cyclohexyl-3-methoxy-6,7-dihydro-5-oxa-7a-azadibenzo[a,e]azulene-9-carbonyl)amino]-3-(4-methoxycarbonylaminophenyl)propionate]
IC50: < 0.1 µM

COC(=O)[C@H](Cc1ccc(O)c(Cl)c1)NC(=O)c1ccc2c(C3CCCCC3)c3n(c2c1)CCOc1cc(OC)ccc1-3 [Example 2-363, methyl (S)-3-(3-chloro-4-hydroxyphenyl)-2-[(12-cyclohexyl-3-methoxy-6,7-dihydro-5-oxa-7a-azadibenzo[a,e]azulene-9-carbonyl)amino]propionate]
IC50: < 0.1 µM

COC(=O)Nc1ccc(C[C@H](NC(=O)c2ccc3c(C4CCCCC4)c4n(c3c2)CCOc2cc(OC)ccc2-4)C(=O)O)cc1 [Example 2-364, (S)-2-[(12-cyclohexyl-3-methoxy-6,7-dihydro-5-oxa-7a-azadibenzo[a,e]azulene-9-carbonyl)amino]-3-(4-methoxycarbonylaminophenyl)propionic acid]
IC50: < 0.1 µM

COc1ccc2c(c1)OCCn1c-2c(C2CCCCC2)c2ccc(C(=O)N[C@@H](Cc3ccc(O)c(Cl)c3)C(=O)O)cc21 [Example 2-365, (S)-3-(3-chloro-4-hydroxyphenyl)-2-[(12-cyclohexyl-3-methoxy-6,7-dihydro-5-oxa-7a-azadibenzo[a,e]azulene-9-carbonyl)amino]propionic acid]
IC50: < 0.1 µM

COC(=O)[C@H](CCc1ccc(O)cc1)NC(=O)c1ccc2c(C3CCCCC3)c3n(c2c1)CCOc1cc(OC)ccc1-3 [Example 2-366, methyl (S)-2-[(12-cyclohexyl-3-methoxy-6,7-dihydro-5-oxa-7a-azadibenzo[a,e]azulene-9-carbonyl)amino]-4-(4-hydroxyphenyl)butyrate]
IC50: < 0.1 µM

COc1ccc2c(c1)OCCn1c-2c(C2CCCCC2)c2ccc(C(=O)NC(C)(C)c3nc4cc(N(C)C)ccc4[nH]3)cc21 [Example 2-367, N-[1-(5-dimethylamino-1H-benzimidazol-2-yl)-1-methylethyl]-12-cyclohexyl-3-methoxy-6,7-dihydro-5-oxa-7a-azadibenzo[a,e]azulene-9-carboxamide]
IC50: < 0.1 µM

COCC(NC(=O)c1ccc2c(C3CCCCC3)c3n(c2c1)CCOc1cc(OC)ccc1-3)C(=O)N1CCC(O)CC1 (centres unmarked) [Example 2-368, N-[2-(4-hydroxypiperidin-1-yl)-1-methoxymethyl-2-oxoethyl]-12-cyclohexyl-3-methoxy-6,7-dihydro-5-oxa-7a-azadibenzo[a,e]azulene-9-carboxamide]
IC50: < 0.1 µM

COc1ccc2c(c1)OCCn1c-2c(C2CCCCC2)c2ccc(C(=O)N[C@@H](Cc3ccc(OCc4ccccc4)cc3)c3nccs3)cc21 [Example 2-369, N—(S)-[2-(4-benzyloxyphenyl)-1-(thiazol-2-yl)ethyl]-12-cyclohexyl-3-methoxy-6,7-dihydro-5-oxa-7a-azadibenzo[a,e]azulene-9-carboxamide]
IC50: < 0.1 µM

COc1ccc2c(c1)OCCn1c-2c(C2CCCCC2)c2ccc(C(=O)NC(C)(C)c3nc4cc(-c5nc(C)no5)ccc4[nH]3)cc21 [Example 2-370, N-(1-methyl-1-[5-(3-methyl-1,2,4-oxadiazol-5-yl)-1H-benzimidazol-2-yl]ethyl}-12-cyclohexyl-3-methoxy-6,7-dihydro-5-oxa-7a-azadibenzo[a,e]azulene-9-carboxamide]
IC50: < 0.1 µM

COc1ccc2c(c1)OCCn1c-2c(C2CCCCC2)c2ccc(C(=O)N[C@@H](CCC(N)=O)C(=O)OC(C)(C)C)cc21 [Example 2-371, tert-butyl (S)-4-carbamoyl-2-[(12-cyclohexyl-3-methoxy-6,7-dihydro-5-oxa-7a-azadibenzo[a,e]azulene-9-carbonyl)amino]butyrate]
IC50: < 0.1 µM

COc1ccc2c(c1)OCCn1c-2c(C2CCCCC2)c2ccc(C(=O)N[C@@H](CCC(N)=O)C(=O)O)cc21 [Example 2-372, (S)-4-carbamoyl-2-[(12-cyclohexyl-3-methoxy-6,7-dihydro-5-oxa-7a-azadibenzo[a,e]azulene-9-carbonyl)amino]butyric acid]
IC50: < 0.1 µM

COC(=O)[C@H](Cc1ccc(O)cc1)NC(=O)c1ccc2c(C3CCCCC3)c3n(c2c1)CCOc1cc(OC)ccc1-3 [Example 2-373, methyl (S)-2-[(12-cyclohexyl-3-methoxy-6,7-dihydro-5-oxa-7a-azadibenzo[a,e]azulene-9-carbonyl)amino]-3-(4-hydroxyphenyl)propionate]
IC50: < 0.1 µM

COC(=O)C(Cc1ccc(C(F)(F)F)cc1)NC(=O)c1ccc2c(C3CCCCC3)c3n(c2c1)CCOc1cc(OC)ccc1-3 (centres unmarked) [Example 2-374, methyl 2-[(12-cyclohexyl-3-methoxy-6,7-dihydro-5-oxa-7a-azadibenzo[a,e]azulene-9-carbonyl)amino]-3-(4-trifluoromethylphenyl)propionate]
IC50: < 0.1 µM

COc1ccc2c(c1)OCCn1c-2c(C2CCCCC2)c2ccc(C(=O)N[C@@H](Cc3ccc(O)cc3)C(=O)O)cc21 [Example 2-375, (S)-2-[(12-cyclohexyl-3-methoxy-6,7-dihydro-5-oxa-7a-azadibenzo[a,e]azulene-9-carbonyl)amino]-3-(4-hydroxyphenyl)propionic acid]
IC50: < 0.1 µM

COc1ccc2c(c1)OCCn1c-2c(C2CCCCC2)c2ccc(C(=O)N[C@@H](CCc3ccc(O)cc3)C(=O)O)cc21 [Example 2-376, (S)-2-[(12-cyclohexyl-3-methoxy-6,7-dihydro-5-oxa-7a-azadibenzo[a,e]azulene-9-carbonyl)amino]-4-(4-hydroxyphenyl)butyric acid]
IC50: < 0.1 µM

COC(=O)[C@H](Cc1ccc(OCC(=O)OC(C)(C)C)cc1)NC(=O)c1ccc2c(C3CCCCC3)c3n(c2c1)CCOc1cc(OC)ccc1-3 [Example 2-377, methyl (S)-3-(4-tert-butoxycarbonylmethoxyphenyl)-2-[(12-cyclohexyl-3-methoxy-6,7-dihydro-5-oxa-7a-azadibenzo[a,e]azulene-9-carbonyl)amino]propionate]
IC50: < 0.1 µM

COC(=O)[C@H](Cc1ccc(OCC(=O)O)cc1)NC(=O)c1ccc2c(C3CCCCC3)c3n(c2c1)CCOc1cc(OC)ccc1-3 [Example 2-378, methyl (S)-3-(4-carboxymethoxyphenyl)-2-[(12-cyclohexyl-3-methoxy-6,7-dihydro-5-oxa-7a-azadibenzo[a,e]azulene-9-carbonyl)amino]propionate]
IC50: < 0.1 µM

COC(=O)C(CN1CCC(O)CC1)NC(=O)c1ccc2c(C3CCCCC3)c3n(c2c1)CCOc1cc(OC)ccc1-3 (centres unmarked) [Example 2-379, methyl 2-[(12-cyclohexyl-3-methoxy-6,7-dihydro-5-oxa-7a-azadibenzo[a,e]azulene-9-carbonyl)amino]-3-(4-hydroxypiperidin-1-yl)propionate monohydrochloride]
IC50: 0.1 to 1 µM

COc1ccc2c(c1)OCCn1c-2c(C2CCCCC2)c2ccc(C(=O)NC(C)(C)c3nc4cc(F)ccc4[nH]3)cc21 [Example 2-380, N-[1-(5-fluoro-1H-benzimidazol-2-yl)-1-methylethyl]-12-cyclohexyl-3-methoxy-6,7-dihydro-5-oxa-7a-azadibenzo[a,e]azulene-9-carboxamide]
IC50: < 0.1 µM

COc1ccc2c(c1)OCCn1c-2c(C2CCCCC2)c2ccc(C(=O)N[C@@H](Cc3ccc(O)cc3)c3nccs3)cc21 [Example 2-381, N—(S)-[2-(4-hydroxyphenyl)-1-(thiazol-2-yl)ethyl]-12-cyclohexyl-3-methoxy-6,7-dihydro-5-oxa-7a-azadibenzo[a,e]azulene-9-carboxamide]
IC50: < 0.1 µM

CNC(=O)COc1ccc(C[C@H](NC(=O)c2ccc3c(C4CCCCC4)c4n(c3c2)CCOc2cc(OC)ccc2-4)C(=O)OC)cc1 [Example 2-382, methyl (S)-2-[(12-cyclohexyl-3-methoxy-6,7-dihydro-5-oxa-7a-azadibenzo[a,e]azulene-9-carbonyl)amino]-3-[4-(methylcarbamoylmethoxy)phenyl]propionate]
IC50: < 0.1 µM

COC(=O)[C@H](Cc1ccc(OCC(=O)N(C)C)cc1)NC(=O)c1ccc2c(C3CCCCC3)c3n(c2c1)CCOc1cc(OC)ccc1-3 [Example 2-383, methyl (S)-2-[(12-cyclohexyl-3-methoxy-6,7-dihydro-5-oxa-7a-azadibenzo[a,e]azulene-9-carbonyl)amino]-3-[4-(dimethylcarbamoylmethoxy)phenyl]propionate]
IC50: < 0.1 µM

Reference: patent US20070049593A1 (priority 2004, published 2007)
